Patent publication US10988456B2, “O-aminoheteroaryl alkynyl-containing compound, preparation method therefor, and use thereof” (SHANGHAI INSTITUTE OF MATERIA MEDICA, CHINESE ACADEMY OF …, priority 2017, dated 2021)

Legend:
[1] = system: human lung cancer NCI-H1581 xenografts; assay: Growth of subcutaneous xenografts of human lung cancer NCI-H1581 in nude mice; format: in vivo; conditions: for Relative tumor volume RTV (mean ± SD): NCI-H1581, 12.5 mg/kg orally once a day; for Weight (g, mean ± SD): NCI-H1581 tumor-bearing mice, 12.5 mg/kg orally once a day
Procedure: (§1) The diameter of the subcutaneously implanted tumor in nude mice was measured by a vernier caliper. […] In the compound HuFGFR267 50 mg/kg group, the compound was formulated with 0.5% methylcellulose (MC) to the required concentration before use. The formulation of compound was prepared once a week, and orally administered once a day for 14 days. The positive control drug AZD4547 was diluted to the required concentration with water for injection containing 1% Tween 80 before use. The formulation of AZD4547 was prepared once a week, and orally administered once a day for 14 days. In the solvent control group, an equal amount of water for injection was administrated.

[2] = system: human gastric cancer SNU-16 xenografts; assay: Growth of subcutaneous xenografts of human gastric cancer SNU-16 in nude mice (HuFGFR267 study); format: in vivo; conditions: for Relative tumor volume RTV (mean ± SD): SNU-16, 12.5 mg/kg orally once a day; for Weight (g, mean ± SD): SNU-16 tumor-bearing mice, 12.5 mg/kg orally once a day
Procedure: as §1, with “The formulation of compound was prepared once a week, and orally administered once a day for 14 days.” left out, “The formulation of AZD4547 was prepared once a week, and orally administered once a day for 14 days.” left out

FGFR1 = FGFR1 (Homo sapiens, UniProt P11362); assay: Inhibition of receptor tyrosine kinase activity at molecular level (ELISA, Poly(Glu,Tyr)4:1 substrate phosphorylation); format: biochemical; conditions: 10 nM compound; average of two independent experiments
Procedure: (§2) Enzyme reaction substrate Poly(Glu, Tyr)4:1 was diluted with potassium-free PBS (10 mM sodium phosphate buffer, 150 mM NaCl, pH 7.2-7.4) to 20 μg/mL. […] The reaction was conducted under 37° C. for 12-16 hours. After the liquid was removed from the wells, the plate was washed three times with 200 μL/well of T-PBS (PBS containing 0.1% Tween-20), each for 5 minutes. The enzyme plate was dried in 37° C. dryer for 1-2 hours.
(§3) 50 μL ATP solution diluted with buffer (50 mM HEPES pH 7.4, 50 mM MgCl2, 0.5 mM MnCl2, 0.2 mM Na3VO4, 1 mM DTT) to a final concentration of 5 μM was added into each well. The compound was diluted with DMSO to a suitable concentration (1 μL/well) or the well contained the corresponding concentration of DMSO (negative control well) Then various kinase recombinant proteins diluted with 49 μL of reaction buffer was added to initiate the reaction. Each experiment required duplicate enzyme-free control well. The reaction was carried out for 1 hour on a 37° C. Shaker (100 rpm). The plate was washed three times with T-PBS. A dilution of the primary antibody PY99 was added (100 μL/well), and the reaction was conducted in a shaker at 37° C. for 0.5 hr. The plate was washed three times with T-PBS. A dilution of the horseradish peroxidase-labeled goat anti-mouse IgG secondary antibody was added (100 μL/well), and the reaction was conducted in a shaker at 37° C. for 0.5 hour. Plate was washed with T-PBS for three times. 2 mg/mL OPD coloration solution (diluted with 0.1 M citric acid-sodium citrate buffer containing 0.03% H2O2 (pH=5.4)) was added (100 μL/well), reacted for 1-10 minutes at 25° C. in dark. The reaction was quenched with 2M H2SO4 (50 μL/well), and read at 490 nm using a tunable microplate reader SPECTRA MAX 190.
(§4) The inhibition ratio of the sample was determined by the following formula: […]
(§5) The IC50 values were obtained via four-parameter regression analysis using the software supplied with the microplate reader.

KDR = KDR (Homo sapiens, UniProt P35968); assay: as above; format: biochemical; conditions: 10 nM compound; average of two independent experiments
Procedure: as §2, §3, §4, §5

RET = RET (Homo sapiens, UniProt P07949); assay: as above; format: biochemical; conditions: for 10 nM inhibition ratio RET: 10 nM compound, average of two independent experiments
Procedure: as §2, §3, §4, §5

Ret (V804M) = target: T1, Ret (V804M) (Homo sapiens, UniProt P07949, V804M); assay: Inhibition of RET-related mutant enzyme activity (ELISA); format: biochemical; conditions: measured twice, Mean ± SD
T1 construct: purchased
Procedure: Enzyme reaction substrate Poly(Glu, Tyr)4:1 was diluted with potassium-free PBS (10 mM sodium phosphate buffer, 150 mM NaCl, pH 7.2-7.4) to 20 μg/mL. The enzyme label plate was coated with 125 μL/well. The reaction was conducted under 37° C. for 12-16 hours. After the liquid was removed from the wells, the plate was washed three times with 200 μL/well of T-PBS (PBS containing 0.1% Tween-20), each for 5 minutes. The enzyme plate was dried in 37° C. dryer for 1-2 hours.
50 μL ATP solution diluted with buffer (50 mM HEPES pH 7.4, 50 mM MgCl2, 0.5 mM MnCl2, 0.2 mM Na3VO4, 1 mM DTT) to a final concentration of 5 μM was added into each well. The compound was diluted with DMSO to a suitable concentration (1 μL/well) or the well contained the corresponding concentration of DMSO (negative control well) Then various kinase recombinant proteins diluted with 49 μL of reaction buffer was added to initiate the reaction. Each experiment required duplicate enzyme-free control well. The reaction was carried out for 1 hour on a 37° C. Shaker (100 rpm). […] The reaction was quenched with 2M H2SO4 (50 μL/well), and read at 490 nm using a tunable microplate reader SPECTRA MAX 190.
as §4
The IC50 values were obtained via four-parameter regression analysis using the software supplied with the microplate reader. […]

[3] = system: RET signaling pathway in TT and BaF3/CCDC6-RET cells; assay: Western blotting of RET signaling pathway activation in cells; format: cell-based; conditions: compounds 2 hours; P-RET, P-AKT, P-ErK
Procedure: Detecting the Effect of Compounds on the Activation of RET Signaling Pathway in TT and BaF3/CCDC6-RET Cells by Western Blotting
The cells were seeded into a 12-well plate (250,000/well). After incubation for 18-24 hours, the compounds were added to react for 2 hours, and then the cells were collected and firstly washed once with cold PBS (containing 1 mmol sodium vanadate); then 1×SDS gel loading buffer (50 mmol Tris-HCl (pH 6.8), 100 mmol DTT, 2% SDS, 10% glycerol, 1 mmol sodium vanadate, 0.1% bromophenol blue) was added to lyse cells. The cell lysate was heated in a boiling water bath for 10 minutes, and then centrifuged at 12,000 rpm for 10 minutes at 4° C.
The supernatant was taken for SDS-PAGE electrophoresis (Mini-PROTEAN 3 Cell, Bio-Rad, Hercules, Calif., USA). After electrophoresis, the proteins were transferred to a nitrocellulose membrane using a semi-dry electrotransfer system (Amersham Life Sciences, Arlington Heights, Ill., USA). The nitrocellulose membrane was placed in a blocking solution (5% skim milk powder diluted in TBS containing 1 mmol sodium vanadate) for 2 hours at room temperature, and then the membrane was placed and reacted with a primary antibody at 4° C. overnight. […] The membrane was placed in a secondary antibody solution and reacted for 1-2 hours at room temperature. After the membrane was washed three times as above, the membrane was stained using ECL (Picece, Rockford, Ill.) reagent was used for staining and then developed.

[4] = Pharmacokinetic experiment in rat (IV and PO, plasma LC-MS/MS)
Procedure: (§6) Ponatinib (AP24534) was administered intravenously (IV) and orally (PO) to SD rats. Blood samples were taken at different time points. LC-MS/MS was used to determine the concentration of compound in the plasma of rats after administration of the test compound, and the relevant pharmacokinetic parameters were calculated to examine oral bioavailability and pharmacokinetic properties of the compound in rats.
as §6, with “Compound HuFGFR267” for “Ponatinib (AP24534)”, “intravenously” for “intravenously (IV)”, “orally” for “orally (PO)”

[5] = system: human gastric cancer SNU-16 xenografts; assay: Growth of subcutaneous xenografts of human gastric cancer SNU-16 in nude mice (comparative compounds study); conditions: for Relative tumor volume RTV (mean ± SD): SNU-16, 30 mg/kg orally once a day; for Weight (g, mean ± SD): SNU-16 tumor-bearing mice, 30 mg/kg orally once a day

Chain of RET (P07949 29-1114): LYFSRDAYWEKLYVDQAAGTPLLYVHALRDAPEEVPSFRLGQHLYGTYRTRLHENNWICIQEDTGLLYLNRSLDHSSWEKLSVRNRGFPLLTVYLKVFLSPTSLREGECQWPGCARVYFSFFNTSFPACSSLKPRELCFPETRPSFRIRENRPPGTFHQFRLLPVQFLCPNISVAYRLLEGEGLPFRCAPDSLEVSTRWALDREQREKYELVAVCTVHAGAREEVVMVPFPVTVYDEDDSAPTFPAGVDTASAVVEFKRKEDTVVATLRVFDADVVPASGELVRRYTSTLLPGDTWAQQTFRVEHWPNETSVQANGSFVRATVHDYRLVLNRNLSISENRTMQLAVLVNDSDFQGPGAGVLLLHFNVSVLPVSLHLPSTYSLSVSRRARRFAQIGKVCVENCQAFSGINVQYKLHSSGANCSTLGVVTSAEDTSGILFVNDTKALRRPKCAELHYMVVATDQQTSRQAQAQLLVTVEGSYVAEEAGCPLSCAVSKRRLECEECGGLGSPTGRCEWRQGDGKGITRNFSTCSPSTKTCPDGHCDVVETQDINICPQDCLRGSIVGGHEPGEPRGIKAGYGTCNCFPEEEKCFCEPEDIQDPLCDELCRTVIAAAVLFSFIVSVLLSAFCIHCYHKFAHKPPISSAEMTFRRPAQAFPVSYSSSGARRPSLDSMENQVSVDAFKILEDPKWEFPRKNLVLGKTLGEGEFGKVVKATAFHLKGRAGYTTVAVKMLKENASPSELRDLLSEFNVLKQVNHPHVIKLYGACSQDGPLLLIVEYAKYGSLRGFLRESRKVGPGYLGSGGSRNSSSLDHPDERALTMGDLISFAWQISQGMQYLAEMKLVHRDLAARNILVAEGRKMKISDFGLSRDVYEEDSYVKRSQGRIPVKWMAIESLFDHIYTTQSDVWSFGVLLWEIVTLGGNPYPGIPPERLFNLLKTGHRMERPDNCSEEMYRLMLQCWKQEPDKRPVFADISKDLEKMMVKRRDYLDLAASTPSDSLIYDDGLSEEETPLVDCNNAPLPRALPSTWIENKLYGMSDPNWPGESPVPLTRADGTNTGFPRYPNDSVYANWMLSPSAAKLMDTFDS
Chain of KDR (P35968 20-1356): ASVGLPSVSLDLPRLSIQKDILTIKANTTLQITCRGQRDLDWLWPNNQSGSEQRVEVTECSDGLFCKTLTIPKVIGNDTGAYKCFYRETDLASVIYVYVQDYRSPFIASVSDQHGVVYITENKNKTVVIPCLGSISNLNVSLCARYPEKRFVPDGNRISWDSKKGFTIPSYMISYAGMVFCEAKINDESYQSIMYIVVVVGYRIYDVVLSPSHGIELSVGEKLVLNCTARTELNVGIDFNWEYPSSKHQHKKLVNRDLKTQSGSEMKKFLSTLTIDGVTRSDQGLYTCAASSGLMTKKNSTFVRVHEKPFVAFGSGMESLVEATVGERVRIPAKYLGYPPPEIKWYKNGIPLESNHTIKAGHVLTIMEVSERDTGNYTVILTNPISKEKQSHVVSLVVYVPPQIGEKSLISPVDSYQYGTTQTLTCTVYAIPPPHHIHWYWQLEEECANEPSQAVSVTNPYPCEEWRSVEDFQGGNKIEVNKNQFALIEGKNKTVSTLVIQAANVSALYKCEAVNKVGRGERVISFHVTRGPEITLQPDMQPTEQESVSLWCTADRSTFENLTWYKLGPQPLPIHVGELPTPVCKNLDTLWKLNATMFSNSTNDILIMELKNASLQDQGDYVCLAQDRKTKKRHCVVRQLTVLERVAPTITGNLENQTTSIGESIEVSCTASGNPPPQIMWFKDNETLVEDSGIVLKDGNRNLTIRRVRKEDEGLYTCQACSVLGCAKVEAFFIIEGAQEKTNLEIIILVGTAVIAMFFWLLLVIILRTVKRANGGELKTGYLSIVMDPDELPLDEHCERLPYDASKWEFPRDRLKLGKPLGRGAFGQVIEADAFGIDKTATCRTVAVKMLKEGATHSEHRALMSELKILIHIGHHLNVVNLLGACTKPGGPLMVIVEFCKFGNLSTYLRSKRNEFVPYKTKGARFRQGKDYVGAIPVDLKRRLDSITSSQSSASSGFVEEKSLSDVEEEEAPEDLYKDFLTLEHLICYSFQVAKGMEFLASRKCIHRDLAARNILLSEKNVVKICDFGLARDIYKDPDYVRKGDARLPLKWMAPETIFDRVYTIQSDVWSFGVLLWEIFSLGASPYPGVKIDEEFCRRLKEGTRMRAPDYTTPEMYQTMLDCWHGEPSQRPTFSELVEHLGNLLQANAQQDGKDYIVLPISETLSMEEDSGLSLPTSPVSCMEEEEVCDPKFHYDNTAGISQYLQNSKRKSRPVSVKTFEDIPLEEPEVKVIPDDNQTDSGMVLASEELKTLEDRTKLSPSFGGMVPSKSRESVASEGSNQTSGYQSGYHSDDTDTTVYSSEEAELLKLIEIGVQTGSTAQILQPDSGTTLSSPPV
Chain of FGFR1 (P11362 22-822): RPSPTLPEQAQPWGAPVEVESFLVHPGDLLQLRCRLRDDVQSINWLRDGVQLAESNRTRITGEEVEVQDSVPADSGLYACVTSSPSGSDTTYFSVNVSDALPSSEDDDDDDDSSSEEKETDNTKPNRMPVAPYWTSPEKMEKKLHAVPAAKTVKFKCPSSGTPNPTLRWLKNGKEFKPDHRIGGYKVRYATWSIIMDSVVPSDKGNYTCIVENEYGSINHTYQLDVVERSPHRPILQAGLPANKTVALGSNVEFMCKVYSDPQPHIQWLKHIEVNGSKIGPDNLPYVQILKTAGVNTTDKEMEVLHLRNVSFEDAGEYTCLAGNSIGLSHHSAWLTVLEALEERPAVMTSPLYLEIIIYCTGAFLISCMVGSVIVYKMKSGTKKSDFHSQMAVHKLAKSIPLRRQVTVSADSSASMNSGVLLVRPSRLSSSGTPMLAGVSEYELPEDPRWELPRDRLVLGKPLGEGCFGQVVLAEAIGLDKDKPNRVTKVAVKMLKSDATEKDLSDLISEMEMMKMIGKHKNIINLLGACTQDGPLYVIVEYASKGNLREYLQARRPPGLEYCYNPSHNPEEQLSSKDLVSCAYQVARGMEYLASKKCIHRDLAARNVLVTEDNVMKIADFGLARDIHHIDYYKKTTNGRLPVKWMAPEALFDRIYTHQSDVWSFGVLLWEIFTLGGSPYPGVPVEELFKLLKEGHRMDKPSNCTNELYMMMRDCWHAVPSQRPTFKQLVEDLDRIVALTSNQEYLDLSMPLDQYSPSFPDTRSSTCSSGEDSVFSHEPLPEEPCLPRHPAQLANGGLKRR
T1 sequence (P07949 29-1114 V804M): as the sequence (P07949 29-1114) above, with V776M counted along it

Compound: COc1cc(CCc2cc(NC(=O)c3ccc(N4C[C@@H](C)N[C@@H](C)C4)cc3)n[nH]2)cc(OC)c1 [AZD4547, reference compound]
- relative tumor proliferation rate T/C ([1]; NCI-H1581, 12.5 mg/kg orally once a day for 14 days, 14th day): 24.03%
- Relative tumor volume RTV (mean ± SD) ([1]; d0): 1.00 ± 0.00
- Relative tumor volume RTV (mean ± SD) ([1]; d3): 1.27 ± 0.44
- Relative tumor volume RTV (mean ± SD) ([1]; d7): 3.43 ± 1.14
- Relative tumor volume RTV (mean ± SD) ([1]; d10): 5.57 ± 3.62
- Relative tumor volume RTV (mean ± SD) ([1]; d14): 13.81 ± 4.56
- animal deaths during the experiment ([1]; NCI-H1581, each group (HuFGFR267 50 mg/kg, AZD4547 12.5 mg/kg)): no mice died
- Weight (g, mean ± SD) ([1]; d0): 18.2 ± 1.6 g
- Weight (g, mean ± SD) ([1]; d3): 19.3 ± 1.6 g
- Weight (g, mean ± SD) ([1]; d7): 20.1 ± 1.9 g
- Weight (g, mean ± SD) ([1]; d10): 20.6 ± 2.2 g
- Weight (g, mean ± SD) ([1]; d14): 21.3 ± 2.3 g
- relative tumor proliferation rate T/C ([2]; SNU-16, 12.5 mg/kg orally once a day for 21 days, day 21): 18.46%
- Relative tumor volume RTV (mean ± SD) ([2]; d0): 1.00 ± 0.00
- Relative tumor volume RTV (mean ± SD) ([2]; d3): 0.92 ± 0.29
- Relative tumor volume RTV (mean ± SD) ([2]; d7): 2.34 ± 1.23
- Relative tumor volume RTV (mean ± SD) ([2]; d10): 2.96 ± 2.19
- Relative tumor volume RTV (mean ± SD) ([2]; d14): 3.36 ± 3.14
- Relative tumor volume RTV (mean ± SD) ([2]; d17): 3.77 ± 2.56
- Relative tumor volume RTV (mean ± SD) ([2]; d21): 4.33 ± 3.29
- animal deaths during the experiment ([2]; SNU-16, each group (HuFGFR267 50 and 25 mg/kg, AZD4547 12.5 mg/kg)): no mice died
- Weight (g, mean ± SD) ([2]; d0): 18.8 ± 1.2 g
- Weight (g, mean ± SD) ([2]; d3): 19.5 ± 1.3 g
- Weight (g, mean ± SD) ([2]; d7): 20.0 ± 1.5 g
- Weight (g, mean ± SD) ([2]; d10): 20.7 ± 1.5 g
- Weight (g, mean ± SD) ([2]; d14): 21.1 ± 1.6 g
- Weight (g, mean ± SD) ([2]; d17): 20.9 ± 1.7 g
- Weight (g, mean ± SD) ([2]; d21): 21.0 ± 1.7 g

Compound: CN1CCN(Cc2ccc(NC(=O)c3cccc(C#Cc4cccnc4N)c3)cc2C(F)(F)F)CC1 [Example 6]
- 10 nM inhibition ratio FGFR1 (FGFR1): 74.7
- 10 nM inhibition ratio KDR (KDR): 35.2
- 10 nM inhibition ratio RET (RET): 57.7
- IC50 (RET; measured twice, Mean ± SD): 6 ± 0.4 nM
- IC50 (Ret (V804M)): 17.9 ± 5.4 nM
- inhibition of RET phosphorylation and downstream signaling pathway (Western blot, FIG. 1) [3]: inhibited RET phosphorylation and the downstream signaling pathway

Compound: Cc1ccc(C(=O)Nc2ccc(CN3CCN(C)CC3)c(C(F)(F)F)c2)cc1C#Cc1cnc2cccnn12 [Ponatinib]
- F ([4]; SD rats, PO (10 mg/kg) vs IV (2 mg/kg)): 24.4%
- AUC0-t ([4]; SD, rat, plasma, iv, 2 mg/kg): 1410 ng·h/mL
- Vd ([4]; SD, rat, plasma, iv, 2 mg/kg): 7.78 L/kg
- clearance ([4]; SD, rat, plasma, iv, 2 mg/kg): 22.2 mL/min/kg
- half-life ([4]; SD, rat, plasma, iv, 2 mg/kg): 4.24 h
- AUC0-t ([4]; SD, rat, plasma, po, 10 mg/kg): 1600 ng·h/mL
- Cmax ([4]; SD, rat, plasma, po, 10 mg/kg): 241 ng/mL
- Tmax ([4]; SD, rat, plasma, po, 10 mg/kg): 2.33 h
- half-life ([4]; SD, rat, plasma, po, 10 mg/kg): 8.29 h
- 10 nM inhibition ratio FGFR1 (FGFR1): 79.5
- 10 nM inhibition ratio KDR (KDR): 85.3
- 10 nM inhibition ratio RET (RET): 87.5
- relative tumor proliferation rate T/C ([5]; SNU-16, 30 mg/kg orally once a day for 21 days, day 21): 36.20%
- Relative tumor volume RTV (mean ± SD) ([5]; d0): 1.00 ± 0.00
- Relative tumor volume RTV (mean ± SD) ([5]; d3): 1.46 ± 0.30
- Relative tumor volume RTV (mean ± SD) ([5]; d7): 1.56 ± 0.52
- Relative tumor volume RTV (mean ± SD) ([5]; d10): 1.56 ± 0.22
- Relative tumor volume RTV (mean ± SD) ([5]; d14): 2.00 ± 0.38
- Relative tumor volume RTV (mean ± SD) ([5]; d17): 1.94 ± 0.47
- Relative tumor volume RTV (mean ± SD) ([5]; d21): 2.10 ± 0.34
- Weight (g, mean ± SD) ([5]; d0): 23.6 ± 2.5 g
- Weight (g, mean ± SD) ([5]; d3): 24.2 ± 2.9 g
- Weight (g, mean ± SD) ([5]; d7): 23.5 ± 2.8 g
- Weight (g, mean ± SD) ([5]; d10): 23.7 ± 2.9 g
- Weight (g, mean ± SD) ([5]; d14): 24.5 ± 2.8 g
- Weight (g, mean ± SD) ([5]; d17): 24.1 ± 2.6 g
- Weight (g, mean ± SD) ([5]; d21): 24.6 ± 3.1 g
- inhibition of RET phosphorylation and downstream signaling pathway (Western blot, FIG. 1) [3]: inhibited RET phosphorylation and the downstream signaling pathway
